We go through two compounds from patent US20240226120A1 (priority 2020, published 2024).

Assay [1] deals with HEK293 (human embryonic kidney) cells expressing the viral Orf10 protein. The assay is classed as cell-based.
Another assay relates to HT22 hippocampal neurons. As to conditions: 5 μM CBD, oxygen-glucose deprivation; cited from earlier work.
The test system of assay [2] is HEK293 (human embryonic kidney) cells expressing the viral Orf8 protein. The assay is classed as cell-based.
The test system of assay [3] is HEK293 (human embryonic kidney) cells transfected with plasmid expressing M protein. As to the kind of experiment: Apoptosis assay (pSIVA early, propidium iodide late), M protein. The assay is classed as cell-based. The text has this: (§1) 2. […] These transfections are done in duplicate.
Assay [4] deals with interferon and interferon-induced antiviral effector gene expression in cells expressing M-protein. The assay can be described thus: qPCR of interferons and effector gene expression, M-protein. The assay is classed as cell-based, human. A general note: In qPCR the cycle at which signal appears reflects the starting amount.
The subject of assay [5] is metabolically dysregulated cells. As to the kind of experiment: Inhouse work on cell death, metabolically dysregulated cells (unpublished data). The assay is classed as cell-based.
A further assay has as its system normal cells. The assay can be described thus: Inhouse work on cell death, normal cells (unpublished data). The assay is classed as cell-based.
The target of the next assay is CB2 receptor (Homo sapiens, UniProt P34972). As to conditions: cited from earlier work.
Chain of CB2 receptor (P34972 whole entry): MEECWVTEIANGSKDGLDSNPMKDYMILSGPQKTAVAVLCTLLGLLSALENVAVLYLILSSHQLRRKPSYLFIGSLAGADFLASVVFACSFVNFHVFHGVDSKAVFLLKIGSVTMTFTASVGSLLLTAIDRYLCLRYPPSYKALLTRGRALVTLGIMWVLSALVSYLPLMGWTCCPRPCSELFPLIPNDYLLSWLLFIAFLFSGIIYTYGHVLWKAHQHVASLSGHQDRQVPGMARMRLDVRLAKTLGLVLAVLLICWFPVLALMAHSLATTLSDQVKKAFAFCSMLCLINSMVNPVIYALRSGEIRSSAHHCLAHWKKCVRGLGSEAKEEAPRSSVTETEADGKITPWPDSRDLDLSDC
For another assay, the system named is Type I interferons. The assay can be described thus: Interferon types after CBD treatment, summary over transfections. The assay is classed as cell-based, human. As to conditions: summary statement, transfection not specified.
The test system of assay [6] is HEK293 (human embryonic kidney) cells transfected with control plasmid pCMV-3Tag-3A. The assay can be described thus: Apoptosis assay (pSIVA early, propidium iodide late), control plasmid. The assay is classed as cell-based. As to conditions: 24 hours, normalized to crystal violet.
Text: as §1

Assay [7] relates to HEK293 (human embryonic kidney) cells expressing the viral M protein. As to the kind of experiment: BrdU incorporation colorimetric ELISA, cells expressing viral M protein. The assay is classed as cell-based. As to conditions: 1 μM, 24 hours, not normalized to cell number (FIG. 5).
In assay [8] the test system is TNFα, IL-6, IL-4, IL-13, IL-10, and IL-5. As to conditions: asthma induced animals treated with Cannabidiol vs asthma induced animals; cited from earlier work.
Assay [9] has as its system HEK293 (human embryonic kidney) cells transfected with plasmid expressing viral protein ORF8. As to the kind of experiment: Apoptosis assay (pSIVA early, propidium iodide late), ORF8. As to conditions: ORF8, 24 hours. The assay is classed as cell-based.
Text: as §1

Where “and” joins values, the source holds several entries; their conditions need not be identical. Identical values can stand only once.

As for `C=C(C)[C@@H]1CCC(C)=C[C@H]1c1c(O)cc(CCCCC)cc1O` [Cannabidiol, 2-[(1R,6R)-3-Methyl-6-(1-methylethenyl)-2-cyclohexen-1-yl]-5-pentyl-1,3-benzenediol], in [1], the “mean BrdU incorporation lower than in cells expressing Orf10 but untreated with cannabinoids” value was found to be 30.44%. Moreover, the “apoptosis and oxidative stress” value with HT22 hippocampal neurons was “significantly attenuated”. Further, the “mean BrdU incorporation lower than in cells expressing Orf8 but untreated with cannabinoids” value in assay [2] was 37.28% and 43.52%. The “early apoptosis (pSIVA)” value in assay [3] (relative to M protein cells treated only with vehicle (FIG. 15A)) is reported as “significantly elevated”; in assay [6], “do not show any significant increase”; in assay [6] (listed as CBD), “did not alter”; in assay [9] (vs vehicle-treated ORF8 cells and vs Cannabidiol-treated control vector cells (FIG. 8A)), “significant increases”. Also, the “late apoptosis (propidium iodide)” value is “significantly elevated” in assay [3] (relative to M protein cells treated only with vehicle (FIG. 15B)); “do not show any significant increase” in [6]; “did not alter” in [6] (listed as CBD); “significant increases” in assay [9] (vs vehicle-treated ORF8 cells and vs Cannabidiol-treated control vector cells (FIG. 8B)). Moreover, the OAS1 gene expression entry in assay [4] (M protein, 1 μM CBD vs vehicle-treated cells, 24 hours (FIG. 18)) was “significantly greater expression”. For the same compound, the “INF-lambda 1 expression” value in assay [4] (M-protein, 1 μM CBD, 24 hours (FIG. 16A)) was “induced”. Besides, the “INF-lambda 2/3 expression” value in [4] (M-protein, 1 μM CBD, 24 hours (FIG. 16B)) is given as “induced”. For the same compound, in assay [4] (M-protein, 1 μM CBD, 24 hours (FIG. 19)), the “IFIT1 augmentation compared with cells expressing control plasmid” value is “lower”. Further, the Mx1 gene expression entry in assay [4] (M-protein, 1 μM CBD, 24 hours, vs Cannabidiol-treated cells expressing only control plasmid (FIG. 17)) is reported as “significantly greater extent”. For the same compound, the cell death entry in assay [5] is listed as “decreases cell death”; in the assay on normal cells, “no effect”. Besides, the “binding to CB2 receptor” value on CB2 receptor is recorded as “very weakly”. For the same compound, in the assay with Type I interferons, the “change in Type I interferons as a result of CBD treatment” value is listed as “not much change”. In addition, the “mean BrdU incorporation lower than in cells expressing M protein but untreated with cannabinoids” value in assay [7] came to 37.28%. The “levels of all cytokines (TNFα, IL-6, IL-4, IL-13, IL-10, IL-5)” value in assay [8] was “reduced significantly”.

Turning to `CCCc1cc(O)c2c(c1)OC(C)(C)[C@@H]1CC=C(C)C[C@@H]21` [delta 8-tetrahydrocannabivarin], the “BrdU incorporation relative to untreated cells” value in assay [1] is “less reduction”.
